For this data set, the target named is ATP-dependent translocase ABCB1 (Homo sapiens, UniProt P08183). Nature of the data set: TP_TRANSPORTER: transepithelial transport (basal to apical) in MDR1-expressing MDCK cells. The class given is functional, cell-based. Conditions: dog.
Chain of ATP-dependent translocase ABCB1 (P08183 whole entry): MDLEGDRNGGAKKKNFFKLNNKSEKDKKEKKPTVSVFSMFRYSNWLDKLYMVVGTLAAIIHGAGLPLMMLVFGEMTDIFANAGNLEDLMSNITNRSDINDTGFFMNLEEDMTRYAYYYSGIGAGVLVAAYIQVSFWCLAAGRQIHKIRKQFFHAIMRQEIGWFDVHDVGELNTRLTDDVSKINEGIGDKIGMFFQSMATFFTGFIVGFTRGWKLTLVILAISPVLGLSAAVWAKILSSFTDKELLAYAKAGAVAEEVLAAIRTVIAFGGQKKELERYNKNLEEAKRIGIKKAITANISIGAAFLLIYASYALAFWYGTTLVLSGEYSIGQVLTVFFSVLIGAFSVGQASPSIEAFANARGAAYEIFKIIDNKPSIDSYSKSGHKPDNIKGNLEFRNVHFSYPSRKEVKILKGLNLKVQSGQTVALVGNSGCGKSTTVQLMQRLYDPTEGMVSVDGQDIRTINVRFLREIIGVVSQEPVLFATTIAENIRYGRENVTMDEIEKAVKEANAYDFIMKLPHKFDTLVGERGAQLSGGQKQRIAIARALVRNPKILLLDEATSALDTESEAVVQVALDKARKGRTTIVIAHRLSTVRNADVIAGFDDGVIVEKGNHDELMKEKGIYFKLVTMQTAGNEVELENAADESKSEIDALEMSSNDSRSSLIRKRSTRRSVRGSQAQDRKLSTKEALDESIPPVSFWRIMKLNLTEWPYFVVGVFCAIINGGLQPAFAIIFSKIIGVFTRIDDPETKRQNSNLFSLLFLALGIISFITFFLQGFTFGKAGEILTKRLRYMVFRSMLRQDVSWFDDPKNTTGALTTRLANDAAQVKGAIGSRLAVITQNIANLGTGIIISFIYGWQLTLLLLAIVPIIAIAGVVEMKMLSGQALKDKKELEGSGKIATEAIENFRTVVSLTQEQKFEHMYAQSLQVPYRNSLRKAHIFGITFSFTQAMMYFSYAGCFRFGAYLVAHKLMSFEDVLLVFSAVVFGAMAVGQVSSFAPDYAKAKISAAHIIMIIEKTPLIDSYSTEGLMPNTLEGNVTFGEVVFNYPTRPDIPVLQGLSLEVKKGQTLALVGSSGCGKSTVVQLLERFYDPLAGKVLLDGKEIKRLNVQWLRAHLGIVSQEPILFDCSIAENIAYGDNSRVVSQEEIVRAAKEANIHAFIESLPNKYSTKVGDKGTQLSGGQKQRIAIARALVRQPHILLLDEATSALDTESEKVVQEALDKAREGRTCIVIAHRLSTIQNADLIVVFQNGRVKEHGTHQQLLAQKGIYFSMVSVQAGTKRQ

Take `C[C@H]1O[C@@H](O[C@H]2[C@@H](O)C[C@H](O[C@H]3[C@@H](O)C[C@H](O[C@H]4CC[C@@]5(C)[C@H](CC[C@@H]6[C@@H]5C[C@@H](O)[C@]5(C)[C@@H](C7=CC(=O)OC7)CC[C@]65O)C4)O[C@@H]3C)O[C@@H]2C)C[C@H](O)[C@@H]1O` [DIGOXIN]: the Activity entry was “substrate [+]”.

Regarding `CC(C)(C(=O)O)c1ccc(C(O)CCCN2CCC(C(O)(c3ccccc3)c3ccccc3)CC2)cc1` (configuration not stated) [FEXOFENADINE], the Activity entry is “substrate [+]”.

The record behind these values is ChEMBL document CHEMBL2074190, “Grapefruit juice activates P-glycoprotein-mediated drug transport” (Pharm Res, 1999).
